From US9908853B2, “Inhibitors of peptidyl arginine deiminase (PAD) enzymes and uses thereof” (University Health Network, priority 2012, dated 2018)
Where two headings read alike, the source gives them in different places. Values belong to the compound of their own block, whether it stands above or below them.

Assays:
[1] = system: ND4 mouse; conditions: cited from earlier work
[2] = system: MOG-EAE model; conditions: cited from earlier work
[3] = system: PAD enzyme activity (i.e. PAD2 and PAD4); conditions: after addition of 2CA to human brain extracts; cited from earlier work
[4] = target: human PAD4 (Homo sapiens, UniProt Q9UM07); assay: Inhibition of PAD4 enzyme activity (BAEE substrate, colorimetric, 530 nm); format: biochemical
[5] = target: rabbit PAD2 (Oryctolagus cuniculus, UniProt G1T837); assay: Inhibition of PAD2 enzyme activity; format: biochemical; conditions: for IC50: rabbit PAD2, Table 1
[6] = target: T1, human PAD1 (Homo sapiens, UniProt Q9ULC6); assay: Inhibition of PAD1 enzyme activity (BAEE substrate, colorimetric, 530 nm); format: biochemical; conditions: for Ki: Table 2, read-out: PAD Ki ± SE (μM), PAD1
T1 sequence (Q9ULC6 1-663): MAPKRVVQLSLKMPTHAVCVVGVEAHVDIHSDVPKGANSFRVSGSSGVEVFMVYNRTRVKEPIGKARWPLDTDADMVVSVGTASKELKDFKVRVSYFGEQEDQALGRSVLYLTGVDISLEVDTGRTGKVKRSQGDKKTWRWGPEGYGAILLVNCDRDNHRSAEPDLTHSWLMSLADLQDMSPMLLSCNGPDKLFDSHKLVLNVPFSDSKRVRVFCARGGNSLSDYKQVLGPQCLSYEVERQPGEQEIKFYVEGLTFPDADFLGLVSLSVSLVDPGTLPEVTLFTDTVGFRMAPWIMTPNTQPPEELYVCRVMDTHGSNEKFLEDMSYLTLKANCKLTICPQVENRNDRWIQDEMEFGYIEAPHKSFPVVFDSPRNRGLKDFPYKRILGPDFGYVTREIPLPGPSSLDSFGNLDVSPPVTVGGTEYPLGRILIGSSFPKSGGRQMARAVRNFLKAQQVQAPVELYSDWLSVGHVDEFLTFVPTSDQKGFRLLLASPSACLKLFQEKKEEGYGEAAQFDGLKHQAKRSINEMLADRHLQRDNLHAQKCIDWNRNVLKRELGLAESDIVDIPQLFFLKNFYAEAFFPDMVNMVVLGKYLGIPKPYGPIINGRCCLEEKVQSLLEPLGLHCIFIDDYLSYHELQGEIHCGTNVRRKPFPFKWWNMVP
Procedure: Control reaction contained no inhibitor. Enzyme was added to initiate the reaction. The reaction samples were incubated at 37° C. for 30 min. Color reagent was added and the samples were boiled for 15 min. Samples were cooled on ice, further processed, and the absorbance was measured at 530 nm. Remaining activity was calculated as a percentage of the uninhibited samples.

[7] = system: mice; assay: Mouse toxicity studies; format: in vivo
[8] = system: MOG-EAE mouse model; assay: MOG-EAE mouse model, compound of Formula (Ia); format: in vivo, C57BL/6 mice
Procedure: On day 8 after the induction of EAE, mice received 2 mg of the compound of Formula ([…].) every other day until day 23. […] Mice were sacrificed on day 24 (i.e. after 2 weeks of treatment) and anti-CD3 staining on spinal cord and brain samples was undertaken.

[9] = In vitro cellular toxicity to CHO cells; format: cell-based; conditions: Chinese hamster, read-out: CHO cells IC50 ± SE
[10] = Example 8, read-out: equilibrium inhibition constant Ki against PAD2
[11] = Table 2, read-out: PAD Ki ± SE (μM), PAD4

Chain of human PAD4 (Q9UM07 whole entry): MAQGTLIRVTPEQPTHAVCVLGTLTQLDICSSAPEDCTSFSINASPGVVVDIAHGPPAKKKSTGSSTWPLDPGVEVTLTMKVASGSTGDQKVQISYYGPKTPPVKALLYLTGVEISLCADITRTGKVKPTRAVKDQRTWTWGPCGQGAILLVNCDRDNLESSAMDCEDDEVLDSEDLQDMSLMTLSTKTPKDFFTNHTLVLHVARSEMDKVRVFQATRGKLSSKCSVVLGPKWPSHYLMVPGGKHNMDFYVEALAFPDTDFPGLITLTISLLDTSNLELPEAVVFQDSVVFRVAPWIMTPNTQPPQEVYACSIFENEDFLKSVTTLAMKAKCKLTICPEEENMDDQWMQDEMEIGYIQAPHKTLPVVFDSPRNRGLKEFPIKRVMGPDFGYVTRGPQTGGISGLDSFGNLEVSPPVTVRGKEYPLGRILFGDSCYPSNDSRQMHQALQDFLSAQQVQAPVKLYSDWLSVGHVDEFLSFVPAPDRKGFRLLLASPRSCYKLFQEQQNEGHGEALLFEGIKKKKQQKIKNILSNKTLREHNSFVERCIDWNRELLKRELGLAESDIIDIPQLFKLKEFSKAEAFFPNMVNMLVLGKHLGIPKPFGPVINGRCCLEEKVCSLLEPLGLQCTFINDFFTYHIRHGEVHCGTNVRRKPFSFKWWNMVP
Chain of rabbit PAD2 (G1T837 1-665): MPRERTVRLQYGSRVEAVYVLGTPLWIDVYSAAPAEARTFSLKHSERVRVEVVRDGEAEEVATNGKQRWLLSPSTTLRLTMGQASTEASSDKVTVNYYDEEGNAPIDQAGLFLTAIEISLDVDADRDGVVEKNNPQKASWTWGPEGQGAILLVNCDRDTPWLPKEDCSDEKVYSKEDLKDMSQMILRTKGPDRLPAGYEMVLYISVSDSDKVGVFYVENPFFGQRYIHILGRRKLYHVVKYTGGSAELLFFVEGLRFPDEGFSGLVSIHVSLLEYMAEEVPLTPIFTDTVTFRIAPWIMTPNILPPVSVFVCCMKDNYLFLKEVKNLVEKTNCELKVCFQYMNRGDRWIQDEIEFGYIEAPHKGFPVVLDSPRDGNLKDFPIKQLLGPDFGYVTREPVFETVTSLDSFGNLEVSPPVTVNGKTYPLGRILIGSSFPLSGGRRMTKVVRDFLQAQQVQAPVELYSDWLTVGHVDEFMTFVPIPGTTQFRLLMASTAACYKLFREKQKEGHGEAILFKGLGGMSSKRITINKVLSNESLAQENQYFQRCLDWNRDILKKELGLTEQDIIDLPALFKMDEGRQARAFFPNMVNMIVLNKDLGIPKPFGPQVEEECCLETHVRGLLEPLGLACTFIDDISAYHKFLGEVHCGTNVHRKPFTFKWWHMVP

Compound: N=C(N)CCl [Compound 2CA, 2-chloroacetamidine]
disease progression in ND4 mice, treatment after early onset ([1]; 5 mg/kg i.p. every other day, from 3.5 months up to 6 months of age): did not show disease progression | disease in ND4 mice, treatment before onset ([1]; 5 mg/kg i.p. every other day, started at 2 months of age): essentially prevented the disease | PAD activity in brain ([1]; ND4 mice, right after cessation of treatment at 6 months): attenuated | deaths in the treatment groups ([1]; ND4 mice, until 6 months of age): none died | G-ratio (axon diameter/fiber diameter), optic nerve ([1]; treated ND4 mice, healthy littermates 0.74+0.13, ND4 0.96+0.3): 0.9+0.15 | survival by day 30 ([2]; 5 mg/kg i.p. every other day starting day 9): ~50% | PAD activity in brain white matter ([2]; EAE mice): effectively attenuated | PAD activity in spinal cord ([2]; EAE mice): reductions to normal levels | relapse ([2]; treated group): No relapse | disease lethality ([2]; treatment started before immunization): zero | PAD activity in NAWM extracts [3]: declined

Compound: CC1(C)NC(=O)N(CN2CCNCC2)C1=O [Formula (Ia)]
IC50 [4]: 48.3 ± 7.4 µM | Ki [4]: 7.4 µM | IC50 ([4]; read-out: IC50 (μM), PAD4, human PAD4, Table 1, varies with salt form and batch of the enzyme): ≤ 3820 µM | inhibition at 30 µM ([4]; read-out: Inhibition of the enzyme activity): 78% | Ki [5]: 0.93 µM | IC50 ([6]; Table 1): 763 µM | general toxicity ([7]; 10 mg/mouse for 5 days): no general toxicity | general toxicity ([7]; single 20 mg/mouse dose): no general toxicity | clinical scores ([8]; 2 mg b.i.d. i.p. every other day, day 8 to day 23, control group higher than 2): ~1 | CD3 markers in brain ([8]; anti-CD3 staining, sacrificed day 24, untreated 4.8±0.19): 3.8±0.23 /mm^2 | PAD activity in treated brain samples ([8]; sacrificed day 24): much reduced

Compound: CCOC(=O)CC1(C)NC(=O)N(CN2CCNCC2)C1=O (centres unmarked) [Formula (Ib), Ethyl [4-methyl-2,5-dioxo-1-(piperazin-1-ylmethyl)imidazolidin-4-yl]acetate]
IC50 ([4]; human PAD4, Table 1, varies with salt form and batch of the enzyme, read-out: IC50 (μM), PAD4): 36 ± 18 µM | Ki [5, 10]: 0.46 µM | IC50 [5]: 12.3 ± 4.8 µM

Compound: CC(C)(C)OC(=O)CC1(C)NC(=O)N(CN2CCNCC2)C1=O (centres unmarked) [Formula (Ic), tert-Butyl-[4-methyl-2,5-dioxo-1-(piperazin-1-ylmethyl)imidazolidin-4-yl]acetate]
Ki [5, 10]: 0.65 µM | IC50 [5]: 16.8 ± 7 µM

Compound: CN1CCN(CN2C(=O)NC(C)(C)C2=O)CC1 [I(e)]
Ki [4, 11]: 45.6 ± 9 µM | Ki [6]: 115 ± 5.5 µM | IC50 [9]: 143 ± 4 µM

Compound: CC1(C)NC(=O)N(CCn2ccnc2)C1=O [I(g)]
Ki [4, 11]: 4 ± 1.7 µM | Ki [6]: 110 ± 4 µM | IC50 [9]: 1990 ± 823 µM

Compound: CC1(C)NC(=O)N(CCNCC(N)=O)C1=O [I(h)]
Inhibition of PAD4, in words [4]: good activity | Ki [4, 11]: 21.8 ± 7.1 µM | Ki [6]: 33.6 ± 2.6 µM

Continued, in another order:

Ki [4, 11]: 317 ± 32.8 µM | Ki [6]: 117 ± 41.1 µM
Compound: CC1(C)NC(=O)N(CCN)C1=O [I(i)]
IC50 [9]: 5840 ± 2370 µM

Ki [4, 11]: 52 ± 34.1 µM | Ki [6]: 55.5 ± 12.3 µM
Compound: CC1(C)NC(=O)N(CCNCCN)C1=O [I(j)]
IC50 [9]: 2690 ± 175 µM

Ki [4, 11]: 384 ± 41 µM | Ki [6]: 105 ± 22.1 µM
Compound: CC1(C)NC(=O)N(CCCN)C1=O [I(k)]

Ki [4, 11]: 123 ± 14.7 µM | Ki [6]: 42.9 ± 5 µM
Compound: CC1(C)NC(=O)N(CCCNCCN)C1=O [I(l)]
IC50 [9]: 16700 ± 31600 µM
